# Source: patent US8258114B2, “Modulation of glucose-6-phosphatase translocase expression” (Isis Pharmaceuticals, Inc., priority 2004, dated 2012)
# Oligonucleotides are written 5' to 3', each unit as a sugar letter and its base; * is a phosphorothioate linkage, no mark a phosphodiester; rarer units and linkages stand in square brackets, end groups in braces. Plain capitals give the bases only. e = 2'-O-(2-methoxyethyl) (MOE); [5mC] = 5-methylcytosine; d = 2'-deoxy (DNA)
# Tests used:
# [1] = Plasma glucose, cholesterol and triglycerides in normal Sprague-Dawley rats (Table 14); type: in vivo, rat; design: plasma GLUCOSE WK 0 / plasma GLUCOSE WK 3: unit not given beside the values
# Protocol: (§1) Each treatment group was comprised of 4 animals.
# To further assess the physiological effects resulting from inhibition of target mRNA, the rats were evaluated at the beginning (Wk 0) and at the end (Wk 3) of the treatment period for plasma glucose, plasma cholesterol, and plasma triglyceride levels. Triglycerides and cholesterol were measured by routine clinical analyzer instruments (e.g. Olympus Clinical Analyzer, Melville, N.Y.). Glucose levels were measured using a glucose analyzer, for example a YSI glucose analyzer (YSI Scientific, Yellow Springs, Ohio). Results are presented in Table 14 as the average level of plasma glucose, plasma cholesterol (CHOL), or plasma triglycerides (TRIG) measured per treatment group.
# [2] = tested on: human glucose-6-phosphatase translocase mRNA; test: Antisense inhibition of human glucose-6-phosphatase translocase mRNA in HepG2 cells (Table 11); type: cell-based; design: concentration or dose not given beside the values; settings: LIPOFECTIN, mRNA by real-time PCR
# Outline: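 HepG2 cells at 65-75% confluency transfected with 2′-MOE gapmer oligonucleotides using LIPOFECTIN (2.5 or 3 μg/mL per 100 nM oligo) for 4-7 h and harvested 16-24 h later. Target mRNA measured by RT real-time PCR and normalized to GAPDH or RiboGreen total RNA.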
# [3] = tested on: mouse glucose-6-phosphatase translocase mRNA; test: Antisense inhibition of mouse glucose-6-phosphatase translocase mRNA in primary mouse hepatocytes, 150 nM, LIPOFECTIN (Table 22); type: cell-based; settings: real-time PCR
# Outline: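 Primary CD-1 mouse hepatocytes at 65-75% confluency transfected ~4-7 h at 37° C with 150 nM 5-10-5 2′-MOE gapmer phosphorothioate oligonucleotides plus LIPOFECTIN (2.5 or 3 μg/mL per 100 nM). Harvested 16-24 h post-treatment; mRNA by real-time RT-PCR, normalized to GAPDH or RiboGreen total RNA, expressed as percent inhibition.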
# [4] = Body weight and tissue weights of normal Sprague-Dawley rats (Table 13); settings: for Spleen weight / Fat weight / Kidney weight / Liver weight: end of study
# Protocol: For three weeks, male Sprague-Dawley rats were injected twice-weekly with doses of 12.5 mg/kg, 25 mg/kg, or 50 mg/kg of ISIS 145760, ISIS 359543, or ISIS 366228. Each treatment group was comprised of 4 animals. Animals which received twice weekly injections of saline served as controls.
# Body weight was monitored throughout the study period. […] Tissue weights were also measured at the end of the study.
# [5] = tested on: glucose-6-phosphatase translocase mRNA; test: Target reduction in liver: rat dose-response study (Table 12); type: in vivo; settings: Sprague-Dawley rats; for % Inhibition, target reduction in liver: three weeks
# Protocol: as §1
# At the end of the treatment period, animals were sacrificed and target reduction in liver was measured by real-time PCR as described in other examples herein. Results are shown in Table 12 as the average percent reduction in glucose-6-phosphatase translocase levels as compared to saline treated control.
sequence,measurement,setting,value
CGGCCCATCTTGGTGCGGAT (e[5mC]*eG*eG*e[5mC]*e[5mC]*d[5mC]*dA*dT*d[5mC]*dT*dT*dG*dG*dT*dG*e[5mC]*eG*eG*eA*eT; antisense) [ISIS 145706],plasma cholesterol (CHOL) WK 3,"[1]; 12.5 mg/kg twice weekly, saline 58",51
same,plasma triglycerides (TRIG) WK 0,"[1]; 12.5 mg/kg twice weekly, saline 69",54
same,plasma cholesterol (CHOL) WK 0,"[1]; 12.5 mg/kg twice weekly, saline 74",69
same,plasma GLUCOSE WK 0,"[1]; 12.5 mg/kg twice weekly, saline 135",149
same,plasma GLUCOSE WK 3,"[1]; 12.5 mg/kg twice weekly, saline 139",151
same,plasma triglycerides (TRIG) WK 3,"[1]; 12.5 mg/kg twice weekly, saline 140",61
same,plasma GLUCOSE WK 0,[1]; 25 mg/kg twice weekly,149
same,plasma GLUCOSE WK 3,[1]; 25 mg/kg twice weekly,148
same,plasma cholesterol (CHOL) WK 0,[1]; 25 mg/kg twice weekly,80
same,plasma cholesterol (CHOL) WK 3,[1]; 25 mg/kg twice weekly,59
same,plasma triglycerides (TRIG) WK 0,[1]; 25 mg/kg twice weekly,45
same,plasma triglycerides (TRIG) WK 3,[1]; 25 mg/kg twice weekly,58
same,plasma GLUCOSE WK 0,[1]; 50 mg/kg twice weekly,148
same,plasma GLUCOSE WK 3,[1]; 50 mg/kg twice weekly,151
same,plasma cholesterol (CHOL) WK 0,[1]; 50 mg/kg twice weekly,79
same,plasma cholesterol (CHOL) WK 3,[1]; 50 mg/kg twice weekly,57
same,plasma triglycerides (TRIG) WK 0,[1]; 50 mg/kg twice weekly,66
same,plasma triglycerides (TRIG) WK 3,[1]; 50 mg/kg twice weekly,52
same,plasma triglycerides (in words),"[1]; 12.5 to 50 mg/kg, three weeks",prevented the increases in triglycerides observed in saline-treated animals
same,% Inhib,[2],96%
same,% Inhib of mouse glucose-6-phosphatase translocase mRNA levels,[3],54%
same,Spleen weight,"[4]; 12.5 mg/kg twice weekly, saline 0.7",0.7 grams
same,Fat weight,"[4]; 12.5 mg/kg twice weekly, saline 1.8",1.5 grams
same,Kidney weight,"[4]; 12.5 mg/kg twice weekly, saline 3",3 grams
same,Liver weight,"[4]; 12.5 mg/kg twice weekly, saline 15",15 grams
same,Body weight,"[4]; 12.5 mg/kg twice weekly, week 3, saline 290",289 grams
same,Fat weight,[4]; 25 mg/kg twice weekly,1.3 grams
same,Kidney weight,[4]; 25 mg/kg twice weekly,3 grams
same,Liver weight,[4]; 25 mg/kg twice weekly,15 grams
same,Spleen weight,[4]; 25 mg/kg twice weekly,1.0 grams
same,Body weight,"[4]; 25 mg/kg twice weekly, week 3",300 grams
same,Fat weight,[4]; 50 mg/kg twice weekly,1.2 grams
same,Kidney weight,[4]; 50 mg/kg twice weekly,3 grams
same,Liver weight,[4]; 50 mg/kg twice weekly,16 grams
same,Spleen weight,[4]; 50 mg/kg twice weekly,0.9 grams
same,Body weight,"[4]; 50 mg/kg twice weekly, week 3",290 grams
same,Increases in body weights (in words),"[4]; 12.5 to 50 mg/kg, throughout the study",comparable to the increases in body weight observed for saline-treated control animals
same,"% Inhibition, target reduction in liver",[5]; 12.5 mg/kg twice weekly,12%
same,"% Inhibition, target reduction in liver",[5]; 25 mg/kg twice weekly,56%
same,"% Inhibition, target reduction in liver",[5]; 50 mg/kg twice weekly,77%
same,target mRNA levels in rat liver (in words),[5]; 12.5 to 50 mg/kg,effective in reducing target mRNA levels in rat liver in a dose-dependent manner
